Measurements reported in patent US10975048B2, “Composition of 1,3,4-selenadiazole containing compounds with pharmacological activity” (HANGZHOU JENNIFER BIOTECH CO., LTD, priority 2015, dated 2021).
Read-outs that look alike come from different tables or passages of the source.

Experiments:
[1] = target: GDH (Homo sapiens, UniProt P00367); test: GDH inhibition IC50; assay type: biochemical
[2] = target: T1, KGA (Homo sapiens, UniProt O94925); test: KGA inhibition IC50; assay type: biochemical
T1 sequence (O94925 55-669): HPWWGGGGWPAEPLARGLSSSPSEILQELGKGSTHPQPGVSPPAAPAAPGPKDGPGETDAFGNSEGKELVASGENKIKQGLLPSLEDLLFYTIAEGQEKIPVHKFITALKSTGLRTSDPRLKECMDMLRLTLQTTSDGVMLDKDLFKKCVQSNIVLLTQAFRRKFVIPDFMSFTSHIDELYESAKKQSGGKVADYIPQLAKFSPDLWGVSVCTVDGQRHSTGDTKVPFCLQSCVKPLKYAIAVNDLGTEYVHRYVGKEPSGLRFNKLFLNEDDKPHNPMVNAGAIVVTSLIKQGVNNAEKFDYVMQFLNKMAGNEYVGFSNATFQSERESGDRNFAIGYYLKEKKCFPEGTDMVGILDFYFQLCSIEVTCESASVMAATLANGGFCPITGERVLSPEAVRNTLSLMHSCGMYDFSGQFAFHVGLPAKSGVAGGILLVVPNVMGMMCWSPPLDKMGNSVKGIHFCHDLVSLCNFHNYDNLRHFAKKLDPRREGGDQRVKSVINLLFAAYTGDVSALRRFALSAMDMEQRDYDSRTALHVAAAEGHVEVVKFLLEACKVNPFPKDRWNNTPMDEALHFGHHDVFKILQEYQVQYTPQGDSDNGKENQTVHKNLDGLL
Excerpt: (§1) The molecular structure of specific compounds is described as follows: […]

[3] = test system: A 549 lung cancer cells; test: Inhibition of A549 lung cancer cells; assay type: cell-based; conditions: for A549 Max-INH: maximal inhibition; for IC50: Homo sapiens
Excerpt: as §1

[4] = A549 cells, read-out: A549 IC50

GDH, sequence (P00367 54-558): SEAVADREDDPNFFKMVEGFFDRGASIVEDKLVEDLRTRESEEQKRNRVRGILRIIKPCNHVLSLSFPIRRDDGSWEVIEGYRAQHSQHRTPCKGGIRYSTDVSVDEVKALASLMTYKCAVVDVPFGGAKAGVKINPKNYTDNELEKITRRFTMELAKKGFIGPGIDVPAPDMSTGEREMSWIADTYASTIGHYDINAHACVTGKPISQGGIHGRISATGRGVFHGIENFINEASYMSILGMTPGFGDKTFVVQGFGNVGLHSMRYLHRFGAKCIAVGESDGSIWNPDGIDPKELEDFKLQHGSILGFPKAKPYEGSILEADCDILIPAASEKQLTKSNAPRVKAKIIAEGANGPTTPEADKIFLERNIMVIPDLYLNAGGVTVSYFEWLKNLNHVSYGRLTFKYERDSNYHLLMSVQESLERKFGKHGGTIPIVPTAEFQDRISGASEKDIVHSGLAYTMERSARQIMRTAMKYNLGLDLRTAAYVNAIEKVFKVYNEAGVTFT

| melting point [°C] | IC50 ([3]; A549, read-out: A549 IC50) [nM] | Compound | IC50 [1] [nM] | IC50 ([2]; read-out: KGA IC50) [nM] | A549 Max-INH ([3]; A549 cells) [%] | IC50 [3, 4] [nM] | IC50 [2] [nM] |
| --- | --- | --- | --- | --- | --- | --- | --- |
| 172 to 174 | – | c1ccc(Nc2nnc(CCSCCc3nnc(Nc4ccccc4)[se]3)[se]2)cc1 | – | – | – | – | – |
| – | – | Cn1ccc(CC(=O)Nc2nnc(CCSCCc3nnc(NC(=O)Cc4ccn(C)c4)[se]3)[se]2)c1 | > 10000 | 60 | 91 | 3100 | – |
| – | – | Nc1nnc(CCSCCc2nnc(NC(=O)Cc3ccccc3)[se]2)[se]1 | > 10000 | – | 62 | 6300 | 1400 |
| – | – | O=C(Nc1nnc(CCSCCc2nnc(NC(=O)C34CC5CC(CC(C5)C3)C4)[se]2)[se]1)C12CC3CC(CC(C3)C1)C2 | > 10000 | – | 17 | > 10000 | 1900 |
| 109 to 110 | – | ClCCc1nnc(NCCc2ccccc2)[se]1 | – | – | – | – | – |
| – | – | Cn1cc(CC(=O)Nc2nnc(CCSCCc3nnc(N)[se]3)[se]2)c2ccccc21 | > 10000 | – | 84 | 2050 | 110 |
| 109 to 110 | – | ClCCc1nnc(Nc2ccccc2)[se]1 | – | – | – | – | – |
| – | – | Cn1ccc(CC(=O)Nc2nnc(CCSCCc3nnc(NC(=O)Cc4ccn(C)c4)s3)s2)c1 | > 10000 | 130 | 80 | 6500 | – |
| 109 to 110 | – | N=C(N)NCc1nnc(Nc2ccccc2)[se]1 | – | – | – | – | – |
| – | – | Cn1ccc(CC(=O)Nc2nnc(CCSCCc3nnc(N)[se]3)[se]2)c1 | > 10000 | – | 40 | > 10000 | 210 |
| – | – | Cn1cc(CC(=O)Nc2nnc(CCSCCc3nnc(N)s3)s2)c2ccccc21 | > 10000 | 140 | 55 | 9700 | – |
| – | – | Cn1cc(CC(=O)Nc2nnc(CCSCCc3nnc(NC(=O)Cc4cn(C)c5ccccc45)[se]3)[se]2)c2ccccc21 | > 10000 | 27 | 90 | 160 | – |
| 130 to 132 | – | c1ccc(Nc2nnc(Cc3nnc(Nc4ccccc4)[se]3)[se]2)cc1 | – | – | – | – | – |
| 165 to 171 | – | c1ccc(Nc2nnc(CCCCCc3nnc(Nc4ccccc4)[se]3)[se]2)cc1 | – | – | – | – | – |
| – | 40 | O=C(Cc1cccc(OC(F)(F)F)c1)Nc1ccc(CCCCc2nnc(NC(=O)Cc3ccccn3)s2)nn1 | > 10000 | – | 70 | – | – |
| – | – | Nc1nnc(CCSCCc2nnc(NC(=O)C34CC5CC(CC(C5)C3)C4)[se]2)[se]1 | > 10000 | – | 17 | > 10000 | 4000 |
| – | – | Cn1ccc(CC(=O)Nc2nnc(CCSCCc3nnc(N)s3)s2)c1 | > 10000 | 570 | 0 | > 10000 | – |
| – | – | Cn1cc(CC(=O)Nc2nnc(CCSCCc3nnc(NC(=O)Cc4cn(C)c5ccccc45)s3)s2)c2ccccc21 | > 10000 | 280 | 80 | 820 | – |
| 109 to 110 | – | ClCCc1nnc(NCc2ccccc2)[se]1 | – | – | – | – | – |
| – | – | O=C(Cc1ccccc1)Nc1nnc(CCSCCc2nnc(NC(=O)Cc3ccccc3)[se]2)[se]1 | > 10000 | 60 | 66 | 300 | – |
| 160 to 161 | – | c1ccc(Nc2nnc(CCc3nnc(Nc4ccccc4)[se]3)[se]2)cc1 | – | – | – | – | – |
| – | – | O=C(Cc1cccc(OC(F)(F)F)c1)Nc1ccc(CCCCc2nnc(NC(=O)Cc3ccccn3)[se]2)nn1 | > 10000 | 1 | 77 | 17 | – |
| – | – | COc1ccc2c(c1)c(CC(=O)Nc1nnc(CCCCc3ccc(NC(=O)Cc4cccc(OC(F)(F)F)c4)nn3)[se]1)cn2C | > 10000 | 5 | 90 | 10 | – |
| – | – | Cn1cc(CC(=O)Nc2nnc(CCCCc3ccc(NC(=O)Cc4cccc(OC(F)(F)F)c4)nn3)[se]2)c2ccccc21 | > 10000 | 1 | 90 | 17 | – |
| 198 to 201 | – | c1ccc(Nc2nnc(CCCc3nnc(Nc4ccccc4)[se]3)[se]2)cc1 | – | – | – | – | – |
| – | – | O=C(Cc1ccccc1)Nc1nnc(CCSCCc2nnc(NC(=O)Cc3ccccc3)s2)s1 | – | – | 75 | 870 | – |
